{"source": "patent US20050234113A1", "about": "“Antioxidant and radical scavenging activity of synthetic analogs of desferrithiocin” (University of Florida Research Foundation, Inc., priority 2002, published 2005)", "key": {"[1]": {"test_system": "iron", "experiment": "Iron clearance in the non iron-overloaded, bile duct-cannulated rodent model", "format": "in vivo, Sprague-Dawley rats", "procedure": "Briefly, male Sprague-Dawley rats averaging 450 g were housed in Nalgene plastic metabolic cages during the experimental period and given free access to water. The animals were anesthetized using sodium pentobarbital (55 mg/kg) administered intraperitoneally. The bile duct was cannulated using 22-gauge polyethylene tubing. The cannula was inserted into the duct about 1 cm from the duodenum and tied snugly in place. After threading through the shoulder, the cannula was passed from the rat to the swivel inside a metal torque-transmitting tether, which was attached to a rodent jacket around the animal's chest. The cannula was directed from the rat to a Gilson microfraction collector (Middleton, Wis.) by a fluid swivel mounted above the metabolic cage. Bile samples were collected at 3 hour intervals for 24 hours. The urine sample was taken at 24 hours and handling was as previously described. (Bergeron, R. J., et al., J. Med. Chem. 34:2072-2078 (1991).\nThe iron chelators were solubilized in 40% Cremophor RH-40/water (v/v) and given orally and subcutaneously to the rats at the doses shown in Table 4. In the primates, DFO was dissolved in sterile H2O at a concentration of 50 or 100 mg/mL and given orally or subcutaneously at a volume of 1 ml/kg. The desferrithiocin analogues were solubilized in 40% Cremophor RH-40/water (v/v) and given orally to the monkeys at the doses shown in Table 4. However, the desferrithiocin analogues were administered subcutaneously as either a suspension in distilled H2O or as their sodium salts in solution as indicated in Table 4.\nIron clearance studies were carried out both in the non iron-overloaded, bile duct-cannulated rodent model and in the iron-overloaded Cebus apella monkey, and the results are reported as iron clearing efficiency (Table 4). This number is generated by dividing the net iron clearance [total iron excretion (bile or stool plus urine) minus background] by the theoretical iron clearance and multiplying by 100. The theoretical iron clearance is based on a 2:1 metal complex stoichiometry for 4′-(HO)-DADMDFT, a 1:1 stoichiometry for DFO, and a 1:1 stoichiometry for BDU, as shown in the Job's plot (FIG. 5). Data are presented as the mean±the standard error of the mean. The drugs were administered both orally (po) and subcutaneously (sc) to the rodents and primates; the positive control was DFO."}, "[2]": {"test_system": "Myeloperoxidase (MPO) activity in colonic tissue", "experiment": "Myeloperoxidase (MPO) assay in colonic tissue of rats with acetic acid-induced colitis", "format": "in vivo", "conditions": "650 μmol kg^−1 intracolonically 30 min before 4% acetic acid, mean ± standard deviation", "procedure": "The ligands were administered to the rats intracolonically as a suspension or solution in distilled water (2 mL) at a dose of 650 μmol kg^−1. The drug solutions were made fresh for each experiment. ROWASA®, the pharmaceutical preparation which contains 5-ASA (2 mL, 66.7 mg mL^−1) was given at a dose of 2318 μmol kg^−1. Control rats received distilled water (2 mL), administered intracolonically.\nAnimal care and experimental procedures were approved by the Institutional Animal Care and Use Committee. Colitis was induced by a modification of published methods. Briefly, the rats were anesthetized with sodium pentobarbital, 55 mg kg^−1 intraperitoneally. The abdomen was shaved and prepared for surgery. A midline incision was made, and the cecum and proximal colon were exteriorized. A reversible suture was placed at the junction of the cecum and proximal colon. The colon was rinsed with saline (10 mL), and the fluid and intestinal contents were gently expressed out the rectum. A gum-based rectal plug was inserted. The compound of interest, or distilled water in the control animals (2 mL), was injected intracolonically just distal to the ligature. The cecum and proximal colon were returned to the abdominal cavity; the compound was allowed to remain in the gut for 30 min. Then, the cecum and proximal colon were reexteriorized. The rectal plug was removed, and the drug was gently expressed out of the colon. Acetic acid (4%, 2 mL) was injected into the proximal colon over a 15-20-second time period. The acid was allowed to remain in the gut until one minute had passed (i.e., 40-45 seconds after the end of the acid administration). The no acid control rats received distilled water (2 mL), which was administered in the same manner as was the acetic acid. Air (10 mL) was then injected into the proximal colon to expel the acid or water. The cecal/proximal colon ligature was removed, the gut was returned to the abdominal cavity, and the incisions were closed. The animals were allowed to recover overnight and were sacrificed 24 hr later. The entire length of the colon was removed and assessed for damage both densitometrically and biochemically.\nThe activity of MPO was measured in colonic tissue by a modification of the method of Krawisz et al. in Gastroenterology 87, 1344-1350 (1984). Each excised colon was homogenized in 9 volumes of homogenization buffer (0.5% hexadecyltrimethylammonium bromide (HDTMA) in 50 mM sodium acetate, pH 6.0); this homogenate was centrifuged at 1200 g for 20 min at 4° C. A sample of the supernatant (1.8 mL) was transferred into a microcentrifuge tube and stored frozen at −20° C. for up to one week. Prior to assay, the thawed aliquot was centrifuged at about 10,000 g for 15 minutes at 4° C. The final supernatant (33 μL) was added to a solution of o-dianisidine HCl (0.17 mg mL^−1 in 50 mM sodium acetate, pH 6.0, made fresh daily and filtered immediately before use) (950 μL), the mixture was vortexed, and the peroxidase reaction was initiated by the addition of H2O2 to 50 mM sodium acetate, pH 6.0, made fresh daily (16.7 μL). The A470 at room temperature (ca. 23° C.) was read at 15-second intervals for 2 min. The rates were assessed graphically and are presented as change in milliabsorbance units (ΔmAU)/min per g tissue. Under these conditions, 0.1 “Unit” of purified human leukocyte myeloperoxidase (Sigma M-6908) produced a ΔA470 of about 400 mAU/min.\nThe biochemical measurement involves measuring the level of MPO in a sample of homogenate of the whole rat colon. When the colon is damaged by the acetic acid, there is an extravasation of neutrophils. The extent of this infiltration can serve as a quantitative marker for tissue damage. Although other leukocytes, such as eosinophils and monocytes, also contribute to the inflammatory response, their contribution is small; the majority of the cells recruited during the acute inflammatory response are neutrophils. […]"}, "[3]": {"experiment": "Quenching of the ABTS radical cation", "conditions": "Table 5; 6-min reaction, initial OD 1.000"}, "[4]": {"test_system": "iron", "conditions": "cited from earlier work"}}, "note": "Read-outs that look alike come from different tables or passages of the source. Marks after values point to notes of the source that are not given here.", "data": [{"smiles": "O=C(O)[C@H]1CSC(c2ccc(O)cc2O)=N1", "note": "[4′-(HO)-DADMDFT, 4′-hydroxydesazadesmethyldesferrithiocin]", "values": [{"measurement": "% bile (of iron excreted), rodents", "setting": "[1]; 300 μmol/kg po", "result": 100, "unit": "%"}, {"measurement": "% urine (of iron excreted), rodents", "setting": "[1]; 300 μmol/kg po", "result": 0, "unit": "%"}, {"measurement": "efficiency in rodents (%)", "setting": "[1]; 300 μmol/kg po", "result": "2.9±2.8", "unit": "%"}, {"measurement": "% bile (of iron excreted), rodents", "setting": "[1]; 300 μmol/kg sc", "result": 90, "unit": "%"}, {"measurement": "% urine (of iron excreted), rodents", "setting": "[1]; 300 μmol/kg sc", "result": 10, "unit": "%"}, {"measurement": "efficiency in rodents (%)", "setting": "[1]; 300 μmol/kg sc", "result": "2.1±0.9", "unit": "%"}, {"measurement": "MPO activity", "setting": "[2]", "result": "56466 ± 52617 mAU min^−1g of colonic tissue^−1"}, {"measurement": "Slope × 10^3 OD units/μM (ABTS radical cation quenching)", "setting": "[3]", "result": "−102 × 10^3 OD units/μM"}]}, {"smiles": "CC(=O)N(O)CCCCCNC(=O)CCC(=O)N(O)CCCCCNC(=O)CCC(=O)N(O)CCCCCN", "note": "[DFO, Desferrioxamine B, reference compound]", "values": [{"measurement": "MPO activity", "setting": "[2]", "result": "20049 ± 17314 mAU min^−1g of colonic tissue^−1"}, {"measurement": "% bile (of iron excreted), rodents", "setting": "[4]; 150 μmol/kg po, n = 3", "result": 87, "unit": "%"}, {"measurement": "% urine (of iron excreted), rodents", "setting": "[4]; 150 μmol/kg po, n = 3", "result": 13, "unit": "%"}, {"measurement": "efficiency in rodents (%)", "setting": "[4]; 150 μmol/kg po, n = 3", "result": "1.1 ± 0.6^c %"}, {"measurement": "% bile (of iron excreted), rodents", "setting": "[4]; 150 μmol/kg sc, n = 6", "result": 75, "unit": "%"}, {"measurement": "% urine (of iron excreted), rodents", "setting": "[4]; 150 μmol/kg sc, n = 6", "result": 25, "unit": "%"}, {"measurement": "efficiency in rodents (%)", "setting": "[4]; 150 μmol/kg sc, n = 6", "result": "2.8 ± 0.7", "unit": "%"}]}]}
